Data taken from patent publication US5834499A, “5-HT3 receptor agonist, novel thiazole derivative and intermediate thereof” (Yamanouchi Pharmaceutical Co., Ltd., priority 1994, dated 1998).

Experiments:
5-HT3 receptor [1] = target: T1, 5-HT3 receptor (Cavia porcellus, UniProt O70212); test: contractile effects on the isolated colon from a guinea pig (5-HT3 receptor agonistic activity); set-up: species or system guinea pig (male Hartley); details: for Emax: guinea pig, read-out: Max. response; for Relative potency: relative EC50 value, based on that of 5-HT as standard value (1)
T1 construct: Distal colons were excised from male Hartley guinea pigs; from tissue; host or cells: distal colon strips of male Hartley guinea pigs
T1 sequence (O70212 24-490 limits assumed): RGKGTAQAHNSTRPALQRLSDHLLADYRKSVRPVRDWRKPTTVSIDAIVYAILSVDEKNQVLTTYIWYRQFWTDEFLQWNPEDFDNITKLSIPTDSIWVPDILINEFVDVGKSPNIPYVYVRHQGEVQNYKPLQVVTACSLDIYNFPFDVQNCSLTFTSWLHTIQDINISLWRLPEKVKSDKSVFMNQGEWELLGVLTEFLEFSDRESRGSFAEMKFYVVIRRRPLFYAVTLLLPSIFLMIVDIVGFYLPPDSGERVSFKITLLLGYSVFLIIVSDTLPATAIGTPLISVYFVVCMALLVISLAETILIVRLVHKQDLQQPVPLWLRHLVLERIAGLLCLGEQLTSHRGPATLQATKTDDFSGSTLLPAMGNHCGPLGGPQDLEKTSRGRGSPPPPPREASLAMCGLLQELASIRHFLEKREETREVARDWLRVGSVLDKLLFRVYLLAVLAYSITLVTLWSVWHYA
Source text: Distal colons were excised from male Hartley guinea pigs (500 to 800 g) to prepare strips of about 20 mm.
Each strip was longitudinally suspended in an organ bath, and contractile response was isometrically measured.

5-HT3 receptor [2] = test: Facilitation of defecation in rat; assay type: in vivo, rat (male Wistar); details: 10 mg/kg s.c.; number of feces excreted for four hours after administration
Procedure: In the male Wistar rat (200-300 g), facilitating effects on defecation by stimulation of 5-HT3 receptor [Miyata et al., J. Pharmacol. Exp. Ther., 261, 297 (1992)] were studied. The compound (10 mg/kg) was subcutaneously administered to the rat and the number of feces excreted for four hours after the administration was counted.

Compound | Emax (5-HT3 receptor [1]) | Relative potency (5-HT3 receptor [1]) | facilitating effect on defecation (5-HT3 receptor [2])
c1csc(-c2csc(CC3CCCCN3)n2)c1 (centres unmarked) [Ex. 59, 2-[[4-(2-Thienyl)-2-thiazolyl]methyl]piperidine hemifumarate] | 45% | 1/3 | –
NCCc1nc2c(s1)Cc1ccccc1-2.O=C(O)/C=C/C(=O)O [Ex. 9, 2-(2-aminoethyl)-8H-indeno[1,2-d]thiazole fumarate] | 75% | 1/2 | –
c1ccc2c(c1)Cc1sc([C@@H]3C[C@@H]4CCCN4C3)nc1-2 (relative stereo) [Ex. 66, (3R*,5S*)-3-(8H-indeno[1,2-d]thiazol-2-yl)-1-azabicyclo[3.3.0]octane hemifumarate] | 57% | – | –
c1ccc2c(c1)Cc1sc(CCN3CCCCC3)nc1-2 [Ex. 71, 2-(2-piperidinoethyl)-8H-indeno[1,2-d]thiazole] | 51% | – | –
c1ccc2c(c1)Cc1sc(C3CCNC3)nc1-2 (centres unmarked) [Ex. 52, 2-(3-pyrrolidinyl)-8H-indeno[1,2-d]thiazole] | 77% | – | exhibited facilitating effect on defecation
NC1(CCc2nc3c(s2)Cc2ccccc2-3)CCCCC1 [Ex. 70, 2-[2-(1-aminocyclohexyl)ethyl]-8H-indeno[1,2-d]thiazole] | 23% | – | –
O=C(O)/C=C/C(=O)O.c1ccc(-c2csc(C3CCCNC3)n2)cc1 (centres unmarked) [Ex. 46, 4-Phenyl-2-(3-piperidyl)thiazole fumarate] | 52% | 1/2 | –
